Where a name gives a salt, the structure may show the parent alone.
Target: T1, Recombinant Homo sapiens AChE (Homo sapiens, UniProt P22303)
T1 construct: made in house
Assay: biochemical
Assay type: biochemical
Conditions: test sets Set1 and Set2 (Table S15), synthesized and biologically evaluated here
Protocol: The training set of 18 compounds was experimentally evaluated for their ability to inhibit the enzymatic activity of AChE (Table 1 and Online Resource 1 for experimental details).
Reco mbinant Homo sapiens AChE was expressed according to previously described methods [ 6,7]. The enzymatic activit y wa s measured usi ng t he Ell ma n assa y [ 8] adapted to a 96-well for mat. The final assay volume was 200 µ L a nd all measurements were performed in 0.2 mM 5,5’-D ithiobis(2-nitrobenzoic acid) and 1 mM acethylthioc holine iodide in 0.1 M phosphate buffer pH 8.0. All measurements were perfor med in triplicates and the data was fitted to a (log)i nhibit or vs. response four parameters equation using GraphPad Prism (5.0). T he obtained IC50-values were recalculated to pIC50 according to pIC50=-log(IC50) in molar (M) concentration.

T1 sequence (P22303 32-614): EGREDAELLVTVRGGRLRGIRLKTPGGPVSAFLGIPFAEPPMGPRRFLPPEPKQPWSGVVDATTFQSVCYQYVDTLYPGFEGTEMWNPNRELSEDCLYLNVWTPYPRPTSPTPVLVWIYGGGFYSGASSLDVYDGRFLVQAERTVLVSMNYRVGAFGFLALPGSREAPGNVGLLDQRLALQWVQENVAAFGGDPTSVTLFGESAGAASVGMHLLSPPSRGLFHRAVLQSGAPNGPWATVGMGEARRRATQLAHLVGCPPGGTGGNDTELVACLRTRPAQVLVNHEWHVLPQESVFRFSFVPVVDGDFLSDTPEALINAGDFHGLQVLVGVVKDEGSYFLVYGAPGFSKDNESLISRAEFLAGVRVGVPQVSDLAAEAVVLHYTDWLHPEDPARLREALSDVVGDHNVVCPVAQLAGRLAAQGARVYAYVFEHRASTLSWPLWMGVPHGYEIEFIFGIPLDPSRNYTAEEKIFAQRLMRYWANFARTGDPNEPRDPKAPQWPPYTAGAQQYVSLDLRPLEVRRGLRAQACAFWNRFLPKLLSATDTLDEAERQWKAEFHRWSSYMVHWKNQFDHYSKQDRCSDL

| Structure (SMILES) | IC50 [µM] |
| --- | --- |
| Cc1ccc(C(=O)NCCC[n+]2ccccc2)cc1[N+](=O)[O-] [compound 27] | 4.9 |
| Cc1ccc(C(=O)NCC[n+]2ccccc2)cc1[N+](=O)[O-] [compound 28] | 10 |
| Cc1ccc(C(=O)NCCCN(C)C)cc1[N+](=O)[O-] [compound 29] | 19 |
| O=[N+]([O-])c1ccccc1S(=O)(=O)NCC[n+]1ccsc1 [compound 30] | 12 |
| O=C(NCC[n+]1ccsc1)c1cc2cc([N+](=O)[O-])ccc2s1 [compound 31] | 2.6 |
| O=C(COc1ccc(Cl)cc1)Nc1ccc(CN2CCCCC2)cc1 [compound 37] | 0.6 |
| Cc1cc(C)c(OCC(=O)Nc2ccc(CN3CCCCC3)cc2)c(Cl)c1 [compound 38] | 1.3 |
| O=C(COc1ccccc1)Nc1ccc(CN2CCCCC2)cc1 [compound 39] | 1.3 |
| O=C(COc1ccccc1Cl)Nc1ccc(CN2CCCCC2)cc1 [compound 40] | 0.6 |
| CCN(CC)Cc1ccc(NC(=O)COc2cc(C)ccc2C)cc1 [compound 41] | 8.1 |
| O=C(CCc1ccc(Cl)cc1Cl)Nc1ccc(CN2CCCCC2)cc1 [compound 42] | 0.7 |

Same assay, conditions: training set; triplicates; pH 8.0

| Structure (SMILES) | IC50 [µM] |
| --- | --- |
| CCN(CC)CCNS(=O)(=O)Cc1ccc(Cl)cc1 [compound 1] | 13 |
| O=S(=O)(Cc1ccc(Cl)cc1)NCCCN1CCCCC1 [compound 2] | 445 |
| O=C(Cc1ccc(Cl)cc1)NCCCN1CCOCC1 [compound 3] | > 1000 |
| Cc1ccc(S(=O)(=O)NCCN(C)C)cc1[N+](=O)[O-] [compound 4] | 69.5 |
| Cc1ccc(S(=O)(=O)NCCCN2CCCCC2)cc1[N+](=O)[O-] [compound 5] | 101 |
| CCN(CC)CCCNC(=O)c1ccc(C)c([N+](=O)[O-])c1 [compound 6] | 12.8 |
| COc1ccc(N2Cc3ccccc3C2=O)cc1S(=O)(=O)NCCN1CCOCC1 [compound 7] | 4250 |
| COc1ccc(N2Cc3ccccc3C2=O)cc1S(=O)(=O)NCCCN(C)C [compound 8] | 12 |
| CN(C)CCCNC(=O)c1sc2ccccc2c1Cl [compound 9, 3-Chloro-benzo[b]thiophene-2-N-(3-dimethylamino-propyl)-carboxamide hydrochlor ide] | 67.7 |
| O=C(Cc1ccc(C(F)(F)F)cc1)NCCN1CCCCC1 [compound 10, N-[2-(Piperidin-1-yl)-ethyl] -2-(4-trifluoromethyl-phenyl) -acetamide] | 323 |
| O=C(NCCN1CCOCC1)c1ccc(-c2ccc(Cl)cc2)o1 [compound 11, 5-(4-Chlorophenyl)-N-(2-morpholinoethyl)furan-2-carboxamide] | 2430 |
| CCN(CC)CCCNC(=O)c1ccc(-c2ccc(Cl)cc2)o1 [compound 12, 5-(4-Chloro-phenyl)-furan-2-N-[3-(diethylamino)-propyl]-carboxamide hydrochloride] | 78 |
| O=C(Cc1ccc(Cl)cc1)NCC[n+]1ccccc1 [compound 13, 1-(2-[2-(4 -Chloro-phenyl)-acetylamino]-ethyl)-pyridinium bromide] | 25 |
| O=C(NCCC[n+]1ccccc1)c1sc2ccccc2c1Cl [compound 14, 1-(3-[(3-Chloro-benzo[b]thiophen-2-carbonyl)-amino] -propyl)-pyridinium chloride] | 6.6 |
| O=S(=O)(Cc1ccc(C(F)(F)F)cc1)NCCC[n+]1ccccc1 [compound 15] | 22.2 |
| O=C(NCCN1CCNCC1)c1sc2ccccc2c1Cl [compound 16] | 109 |
| O=S(=O)(Cc1ccc(C(F)(F)F)cc1)NCCCN1CCNCC1 [compound 17] | 4200 |
| O=C(NCCCN1CCNCC1)c1ccc(-c2ccc(Cl)cc2)o1 [compound 18] | 136 |

Target: T1, Recombinant Homo sapiens AChE
Assay: not given
Conditions: test set Set3 (Table S15); cited from earlier work

| Structure (SMILES) | IC50 [µM] |
| --- | --- |
| CCN(CC)CCNS(=O)(=O)c1cccc(OC)c1 [compound 60] | 10 |
